Six compounds from patent publication US5116863A, “Dibenz[b,e]oxepin derivative and pharmaceutical compositions thereof” (Kyowa Hakko Kogyo Co., Ltd., priority 1986, dated 1992) can be followed below.

Each structure is given as a SMILES string. Read-outs that look alike come from different tables or passages of the source. Where only a bound is given, the exact number is not on record here.

Data set [1] has as its system homologous PCA (passive cutaneous anaphlaxis) of rats. The data set can be described thus: Homologous PCA (passive cutaneous anaphylaxis) test of rats for 48 hours, oral (antiallergic activity). The format is in vivo, Wistar male rats. The note with it: for minimal effective dose / responders at 0.1 mg/kg / responders at 1 mg/kg / responders at 10 mg/kg / responders at 100 mg/kg / responders at 0.001 mg/kg / responders at 0.01 mg/kg: Rattus norvegicus; for minimal effective dose: read-out: MED (minimum effective dosage), PCA inhibition; for responders at 0.1 mg/kg / responders at 1 mg/kg / responders at 10 mg/kg / responders at 100 mg/kg / responders at 0.001 mg/kg / responders at 0.01 mg/kg: po; for responders at 0.1 mg/kg / responders at 1 mg/kg / responders at 10 mg/kg / responders at 100 mg/kg / responders at 0.001 mg/kg / responders at 0.01 mg/kg / Number of positive zooids in one group of 3 zooids: positive = inhibition rate 50% or higher; for responders at 0.1 mg/kg / responders at 1 mg/kg / responders at 10 mg/kg / responders at 100 mg/kg / responders at 0.01 mg/kg: read-out: Number of positive zooids in one group of 3 zooids (converted); for responders at 0.001 mg/kg: dosage 0.001 mg/kg, read-out: Number of positive zooids in one group of 3 zooids. On the procedure: Antiallergic activity was investigated by a homologous PCA (passive cutaneous anaphlaxis) of rats for 48 hours, where Wistar male rats having body weights of 180 to 220 g were used for sampling of antiserum and Wistar male rats having body weights of 120 to 140 g were used for the PCA test.
Anti-egg white albumin (EWA) rat serum was prepared according to Stotland and Share's method [Canad. J. Physiol. Pharmacol. 52, 1114 (1974)]. That is, 1 mg of EWA was mixed with 20 mg of aluminum hydroxide gel and 0.5 ml of mixed vaccine of pertussis, diphtheria and tetanus, and the mixture was subcutaneously administered in four portions into rat's footpad. After 14 days, blood was sampled from the carotid artery, and the serum was separated from the sampled blood, and preserved under freezing at -80° C. The potency of the antiserumin in the homologous PCA for 48 hours was 1:32.
Groups each consisting of 3 rats were used, and 0.05 ml of anti-EWA rat serum diluted with a physiological saline solution to 8 times as much was incutaneously injected each at two positions of depilated back to make the animals passively sensitised. After 47 hours, the compound of the present invention, or its solution (physiological saline solution or CMC solution) was orally administered. One hour thereafter, 0.5 ml/100 g of 1% Evan's blue physiological saline solution containing 2 mg of the antigen EWA was administered into the tail vein, and 30 minutes thereafter, the animals were sacrificed by exsanguination. Then, the skins were stripped and the amount of leaked pigment at the blue-dyed parts was measured according to the Katayama et al method [Microbiol. Immunol. 22, 89 (1978)]. That is, the blue-dyed parts were cut out by scissors, and placed in test tubes containing 1 ml of 1N KOH and incubated at 37° C. for 24 hours. Then, 9 ml of a mixture of 0.6N phosphoric acid and acetone (5:13) was added thereto, and the mixture was shaked and centrifuged at 2,500 rpm for 10 minutes. Absorbancy of the supernatant at […] was measured, and the amount of leaked pigment was quantitatively determined by the calibration curve prepared in advance. An average of measurements at the two position was made a value for one zooid, and inhibition rate for the individual zooid was calculated by the following formula: [formula]

The subject of data set [2] is dd, male mice. In kind it is in vivo. As for the experimental part: Groups each consisting of 3 dd, male mice having body weights of 20±1 g were used, and the compound of the present invention was administered orally (po: 300 mg/kg) or intraperitoneally (ip: 100 mg/kg).
Setting [3] is: minimum dosage with positive case in at least one of three rats.
Setting [4] is: mice, mortality 7 days after administration.

For the compound `CN1CCN(C/C=C2\c3ccccc3COc3ccc(C(=O)O)cc32)CC1` [Compound 11, 11-[2-(4-Methylpiperazino)ethylidene]-6,11-dihydrodibenz[b,e]oxepin-2-carboxylic acid], in data set [1] (setting [3]), the minimal effective dose was found to be 10 mg/kg. Further, the responders at 0.1 mg/kg in data set [1] (dosage 0.1 mg/kg) was 0%. The responders at 1 mg/kg in data set [1] (dosage 1 mg/kg) was 0%. Also, the responders at 10 mg/kg in data set [1] (dosage 10 mg/kg) is 33.3%. For the same compound, the responders at 100 mg/kg in data set [1] (dosage 100 mg/kg) was 66.7%. Besides, in data set [2] (mouse, in vivo, 10080 min), the “Acute toxicity (MLD), ip” value is above 100 mg/kg and the “Acute toxicity (MLD), po” value is above 300 mg/kg.

With `O=C(O)c1ccc2c(c1)C(=CCN1CCOCC1)c1ccccc1CO2` [Compound 13, 11-(2-Morpholinoethylidene)-6,11-dihydrodibenz[b,e]oxepin-2-carboxylic acid], the minimal effective dose in data set [1] (setting [3]) was 10 mg/kg. For the same compound, the responders at 0.1 mg/kg in data set [1] (dosage 0.1 mg/kg) is 0%. Besides, in data set [1] (dosage 1 mg/kg), the responders at 1 mg/kg was 0%. For the same compound, the responders at 10 mg/kg in data set [1] (dosage 10 mg/kg) is 33.3%. Further, the responders at 100 mg/kg in data set [1] (dosage 100 mg/kg) is 100%. In addition, in data set [2] (setting [4]), the “Acute toxicity (MLD), ip” value was above 100 mg/kg and the “Acute toxicity (MLD), po” value was above 300 mg/kg.

On to `CN(C)CC/C=C1/c2ccccc2COc2ccc(CC(=O)O)cc21` [Compound 20 (cis), Cis-11-(3-dimethylaminopropylidene)-6,11-dihydrodibenz[b,e]oxepin-2-acetic acid], for which, in data set [1] (setting [3]), the minimal effective dose was found to be 0.01 mg/kg. Also, in data set [1], the responders at 0.001 mg/kg turned out to be 0%. For the same compound, the responders at 0.01 mg/kg in data set [1] (dosage 0.01 mg/kg) is 33.3%. In data set [1] (dosage 0.1 mg/kg), the responders at 0.1 mg/kg is 100%. The responders at 1 mg/kg in data set [1] (dosage 1 mg/kg) is 100%. The responders at 10 mg/kg in data set [1] (dosage 10 mg/kg) was 100%. For the same compound, the responders at 100 mg/kg in data set [1] (dosage 100 mg/kg) is 100%. In data set [2] (setting [4]), the “Acute toxicity (MLD), ip” value was above 100 mg/kg and the “Acute toxicity (MLD), po” value is above 300 mg/kg.

Take `CN(C)CC/C=C1\c2ccccc2COc2ccc(CC(=O)O)cc21` [Compound 20 (trans), Trans-11-(3-dimethylaminopropylidene)-6,11-dihydrodibenz[b,e]oxepin-2-acetic acid]: the responders at 0.001 mg/kg in data set [1] came out at 0%. Also, the “Number of positive zooids in one group of 3 zooids” value in data set [1] (dosage 0.01 mg/kg) is reported as 0/3; in data set [1] (dosage 0.1 mg/kg), 3/3; in data set [1] (dosage 1 mg/kg), 3/3; in data set [1] (dosage 10 mg/kg), 2/3; in data set [1] (dosage 100 mg/kg) it was 2/3. Further, the “MED (minimum effective dosage), PCA inhibition” value in data set [1] (setting [3]) was 0.1 mg/kg. Further, the “Acute toxicity (MLD), ip” value in data set [2] (setting [4]) is given as above 100 mg/kg. The “Acute toxicity (MLD), po” value in data set [2] (setting [4]) is above 300 mg/kg.

For the compound `CN(C)CCCC=C1c2ccccc2COc2ccc(CC(=O)O)cc21` [Compound 22, 11-(4-Dimethylaminobutylidene)-6,11-dihydrodibenz[b,e]oxepin-2-acetic acid], in data set [1] (setting [3]), the minimal effective dose was 0.1 mg/kg. The responders at 0.01 mg/kg in data set [1] (dosage 0.01 mg/kg) is 0%. Moreover, the responders at 0.1 mg/kg in data set [1] (dosage 0.1 mg/kg) is 33.3%. Moreover, in data set [1] (dosage 1 mg/kg), the responders at 1 mg/kg is 66.7%. Moreover, the responders at 10 mg/kg in data set [1] (dosage 10 mg/kg) was 100%. In addition, in data set [1] (dosage 100 mg/kg), the responders at 100 mg/kg was 100%. In addition, in data set [2] (setting [4]), the “Acute toxicity (MLD), ip” value is given as above 100 mg/kg and the “Acute toxicity (MLD), po” value is listed as above 300 mg/kg.

With `CN1CCN(CC=C2c3ccccc3COc3ccc(CC(=O)O)cc32)CC1` [Compound 26, 11-[2-(4-Methylpiperazino)ethylidene]-6,11-dihydrodibenz[b,e]oxepin-2-acetic acid], the minimal effective dose in data set [1] (setting [3]) was 1 mg/kg. In addition, the responders at 0.1 mg/kg in data set [1] (dosage 0.1 mg/kg) is 0%. For the same compound, the responders at 1 mg/kg in data set [1] (dosage 1 mg/kg) was 66.7%. Also, the responders at 10 mg/kg in data set [1] (dosage 10 mg/kg) is 100%. The responders at 100 mg/kg in data set [1] (dosage 100 mg/kg) was 100%. In data set [2] (setting [4]), the “Acute toxicity (MLD), ip” value was above 100 mg/kg and the “Acute toxicity (MLD), po” value is given as above 300 mg/kg.
